From US20110268729A1, “TREATMENT OF AMYOTROPHIC LATERAL SCLEROSIS BY NOGO-A-ANTAGONIST” (priority 2008, published 2011) come the findings set out here.

The test system of the assay is SOD1^G93A mice. Briefly: In vivo ALS model muscle physiology study with 2A10 and riluzole. Details: species or system mouse. Here is the method:
Fresh solutions were prepared once a week with the total consumed volume measured in order to ensure a constant daily and weekly dose.

SMILES strings stand for the structures.

For the molecule `Nc1nc2ccc(OC(F)(F)F)cc2s1` [Riluzole, 2-Amino-6-(trifluoromethoxy)benzothiazole], the “TA maximum tetanic force” value (day 90, relative to SOD1-B vehicle group, riluzole 30 mg/kg p 0.0607, anti-Nogo-A 30 mg/kg p 0.1219, combination p 0.039) was “failed to reach statistical significance”. Besides, the “TA time to 1/2 relaxation” value (day 90, vs SOD1 vehicle, riluzole plus 3 mg/kg anti-Nogo-A p value 0.0212) was “trend to normalisation”.
